Measurements from PubChem BioAssay AID1745844 (Carcinogenic Potency Database (CPDB), 2022).
Calls of active or inactive are those of the source. The rule behind the calls is not given here.

Tested on: rodent lifetime carcinogenesis bioassay, tumor incidence TD50
Experiment: carcinogenic potency in animals, long-term in vivo studies, CPDB compilation (AID 1745844)

Cc1[nH]cnc1CSCCN=C(NC#N)N(C)N=O
carcinogen call (mouse, strain C57BL/6, females, in drinking water, site: liver, lesion: several types, types named in the paper, dosed 102 weeks, study length 104 weeks): negative (inactive)
carcinogen call (mouse, strain C57BL/6, females, in drinking water, site: lung, lesion: one or several types, types not named, dosed 102 weeks, study length 104 weeks): negative (inactive)
TD50 (rat, strain Fischer 344, females, in drinking water, site: liver, lesion: neoplastic nodule, dosed 106 weeks, study length 131 weeks): 43.3 mg/kg/day (inactive)
TD50 (rat, strain Fischer 344, females, in drinking water, site: pituitary gland, lesion: one or several types, types not named, dosed 106 weeks, study length 131 weeks): 3.6 mg/kg/day (inactive)
TD50 (rat, strain Fischer 344, females, in drinking water, site: thyroid gland, lesion: one or several types, types not named, dosed 106 weeks, study length 131 weeks): 18.8 mg/kg/day (inactive)
carcinogen call (rat, strain Fischer 344, males, in drinking water, site: liver, lesion: neoplastic nodule, dosed 106 weeks, study length 131 weeks): negative (inactive)
carcinogen call (rat, strain Sprague-Dawley, females, by gavage, site: any site (literature study), lesion: malignant tumor, dosed 52 weeks, study length 104 weeks): negative (inactive)
carcinogen call (rat, strain Sprague-Dawley, females, by gavage, site: any site (literature study), lesion: several types, types named in the paper, dosed 52 weeks, study length 104 weeks): negative (inactive)
TD50 (rat, strain Sprague-Dawley, males, by gavage, site: any site (literature study), lesion: malignant tumor, dosed 52 weeks, study length 104 weeks): 4820 mg/kg/day (inactive)
carcinogen call (rat, strain Sprague-Dawley, males, by gavage, site: any site (literature study), lesion: several types, types named in the paper, dosed 52 weeks, study length 104 weeks): negative (inactive)

O=[As]O
carcinogen call (mouse, strain Charles River CD1, both sexes, in drinking water, site: any site (literature study), lesion: benign tumor, dosed 104 weeks, study length 104 weeks): negative (inactive)
carcinogen call (mouse, strain Charles River CD1, both sexes, in drinking water, site: any site (literature study), lesion: malignant tumor, dosed 104 weeks, study length 104 weeks): negative (inactive)
carcinogen call (mouse, strain Charles River CD1, both sexes, in drinking water, site: any site (literature study), lesion: several types, types named in the paper, dosed 104 weeks, study length 104 weeks): negative (inactive)
carcinogen call (mouse, strain Charles River CD1, both sexes, in drinking water, site: liver, lesion: several types, types named in the paper, dosed 104 weeks, study length 104 weeks): negative (inactive)
carcinogen call (mouse, strain Charles River CD1, both sexes, in drinking water, site: lung, lesion: several types, types named in the paper, dosed 104 weeks, study length 104 weeks): negative (inactive)
carcinogen call (rat, strain Long-Evans BLU:(LE), both sexes, in drinking water, site: any site (literature study), lesion: malignant tumor, dosed 167 weeks, study length 167 weeks): negative (inactive)
carcinogen call (rat, strain Long-Evans BLU:(LE), both sexes, in drinking water, site: any site (literature study), lesion: one or several types, types not named, dosed 167 weeks, study length 167 weeks): negative (inactive)
TD50 (rat, strain Long-Evans BLU:(LE), both sexes, in drinking water, site: liver, lesion: one or several types, types not named, dosed 167 weeks, study length 167 weeks): 10.6 mg/kg/day (inactive)
TD50 (rat, strain Osborne-Mendel, both sexes, in feed, site: any site (literature study), lesion: malignant tumor, dosed 104 weeks, study length 104 weeks): 626 mg/kg/day (inactive)
carcinogen call (rat, strain Osborne-Mendel, both sexes, in feed, site: any site (literature study), lesion: several types, types named in the paper, dosed 104 weeks, study length 104 weeks): negative (inactive)

Nc1nc(N)nc(N)n1
carcinogen call (mouse, strain B6C3F1, females, in feed, site: any site (literature study), lesion: several types, types named in the paper, dosed 103 weeks, study length 105 weeks): negative (inactive)
TD50 (mouse, strain B6C3F1, males, in feed, site: any site (literature study), lesion: several types, types named in the paper, dosed 103 weeks, study length 105 weeks): 3200 mg/kg/day (inactive)
TD50 (mouse, strain B6C3F1, males, in feed, site: liver, lesion: hepatocellular adenoma + hepatocellular carcinoma + neoplastic nodule, dosed 103 weeks, study length 105 weeks): 4370 mg/kg/day
TD50 (rat, strain Fischer 344, females, in feed, site: any site (literature study), lesion: several types, types named in the paper, dosed 103 weeks, study length 105 weeks): 3930 mg/kg/day
TD50 (rat, strain Fischer 344, females, in feed, site: liver, lesion: hepatocellular adenoma + hepatocellular carcinoma + neoplastic nodule, dosed 103 weeks, study length 105 weeks): 4410 mg/kg/day
TD50 (rat, strain Fischer 344, females, in feed, site: thyroid gland, lesion: c-cell adenoma + c-cell carcinoma, dosed 103 weeks, study length 105 weeks): 2470 mg/kg/day (inactive)
TD50 (rat, strain Fischer 344, females, in feed, site: thyroid gland, lesion: c-cell carcinoma, dosed 103 weeks, study length 105 weeks): 4160 mg/kg/day
TD50 (rat, strain Fischer 344, males, in feed, site: any site (literature study), lesion: several types, types named in the paper, dosed 103 weeks, study length 105 weeks): 149 mg/kg/day
TD50 (rat, strain Fischer 344, males, in feed, site: urinary bladder, lesion: transitional-cell carcinoma + transitional-cell papilloma, dosed 103 weeks, study length 105 weeks): 679 mg/kg/day
TD50 (rat, strain Fischer 344, males, in feed, site: urinary bladder, lesion: transitional-cell carcinoma, dosed 103 weeks, study length 105 weeks): 735 mg/kg/day

O=C1c2ccccc2CN2C(=O)c3ccccc3CN12
TD50 (mouse, strain BALB/cLacDp, females, in feed, site: liver, lesion: angioma, dosed 80 weeks, study length 119 weeks): 7130 mg/kg/day
TD50 (mouse, strain BALB/cLacDp, females, in feed, site: liver, lesion: angiosarcoma, dosed 80 weeks, study length 119 weeks): 852 mg/kg/day
TD50 (mouse, strain BALB/cLacDp, females, in feed, site: liver, lesion: hepatocellular adenoma, dosed 80 weeks, study length 119 weeks): 1150 mg/kg/day
TD50 (mouse, strain BALB/cLacDp, females, in feed, site: liver, lesion: hepatocellular carcinoma, dosed 80 weeks, study length 119 weeks): 3540 mg/kg/day
TD50 (mouse, strain BALB/cLacDp, females, in feed, site: lung, lesion: several types, types named in the paper, dosed 80 weeks, study length 119 weeks): 269 mg/kg/day (inactive)
TD50 (mouse, strain BALB/cLacDp, males, in feed, site: liver, lesion: angioma, dosed 80 weeks, study length 119 weeks): 1370 mg/kg/day
TD50 (mouse, strain BALB/cLacDp, males, in feed, site: liver, lesion: angiosarcoma, dosed 80 weeks, study length 119 weeks): 879 mg/kg/day
TD50 (mouse, strain BALB/cLacDp, males, in feed, site: lung, lesion: several types, types named in the paper, dosed 80 weeks, study length 119 weeks): 412 mg/kg/day (inactive)

Cc1ccc2c(c1)C(N1CCN(C)CC1)=Nc1ccccc1S2
carcinogen call (rat, strain albino, females, in feed, site: mammary gland, lesion: fibroadenoma, dosed 78 weeks, study length 78 weeks): negative (inactive)
carcinogen call (rat, strain albino, males, in feed, site: pituitary gland, lesion: adenoma, dosed 78 weeks, study length 78 weeks): negative (inactive)
